The text below walks through data of patent publication US20090227540A1, “TREATMENT OF WOOD BASED ON NOVEL FORMULATIONS OF BORATRANES” (priority 2005, published 2009).

The test system of one data set is P. tephropora. The settings on record: Humphrey et al; cited from earlier work.
In another data set the test system is G. abietinum. Conditions: Humphrey et al; cited from earlier work.
For data set [1], the system named is Fomitopsis lilacino-gilva. In words: decay of treated, leached radiata pine blocks (AWPA protocol). Format: cell-based. Here is the method: (§1) A more rigorous examination of the potential synergism of was carried out on leached wood blocks. Radiata pine blocks were cut to size (20×20×20 mm) and labeled according to treatment level. The blocks were then vacuum impregnated at
(§2) −95 kpa with the various treatments as specified in table 16. The aqueous or alcoholic carrier solvents were then allowed to air dry for a period of 5 days. The blocks were then subjected to leaching and biological attack in accordance with the AWPA's “Proctocols for assessment of Wood Preservatives.” The fungal species used were Tyromyces palustris, Coniophora puteana and Fomitopsis lilacino-gilva.
(§3) inhibition of growth by fungicide B at retention q. E is the expected additive inhibition of the two fungicides. If a greater inhibition occurs with the combined treatment than the two fungicides acting alone synergism is defined to be present.

The next data set concerns Coniophora puteana. Described as above. In kind it is cell-based. Here is the method:
as §1, §2, §3

Data set [2] deals with Tyromyces palustris. The data set is described as above. In kind it is cell-based. As to the method:
as §1, §2, §3

In data set [3] the test system is Fomitopsis lilacino-gilva. The data set can be described thus: malt agar plate growth inhibition, end point/MIC and Kull synergy. In kind it is cell-based. As to the method:
(§4) To this end an alcoholic aqueous solutions of decyl boratrane and didecyldimethyl ammonium chloride were prepared separately and in combination in a ratio of 3:1 Serial dilutions of the formulations of the respective fungicides and fungicide mixture were added to 3 replicate plates of malt agar under aseptic conditions. Three replicate control plates without fungicide were similarly prepared.
(§5) Onto each plate was placed 6 fungal inoculum squares measuring approximately 5×5 mm. […] The plates were then rated for growth inhibition and the results recorded.
(§6) The absence or presence of synergism may be calculated by the method of F. C. Kull et al., Applied Microbiology, Vol 9, (1961) p 538 et seq. The synergistic index (S.I.) is calculated according to the following formula.
(§7) In the present context the parameters in the formula have the following meaning:
(§8) Qa=The concentration of compound decyl isopropanolamine boratrane (compound A) in mixture which produces and end point. Qb=The concentration of compound didecyldimethyl ammonium chloride (compound B) in mixture which produces and end point. QA=The concentration of compound decyl isopropanolamine boratrane (compound A) alone which produces and end point. QB=The concentration of compound didecyldimethyl ammonium chloride (compound B) alone which produces and end point. QC=The concentration of the mixture of didecyldimethyl ammonium chloride and decyl isopropanolamine boratrane (compounds A+B) which together produces and end point.
(§9) If the synergistic index is above 1, this means that antagonism is present. If the synergistic index equals 1, this means that an additive effect of the two biocides exist. If the synergistic index is less than 1, this means that synergism of the two biocides exist.
(§10) To this end an alcoholic aqueous solution of decyl boratrane and didecyldimethyl ammonium chloride was formulated in a ratio of 3:1. In a separate formulation a micro-emulsion of triadimefon was prepared. Serial dilutions of the formulations of the respective fungicides were added to 3 replicate plates of malt agar under aseptic conditions and tested for synergism under the same conditions as example 7 at ratios of 10:1 and 20:1 boratrane didecyldimethyl ammonium chloride mixture to 1 of triadimefon.
(§11) The synergy experiment in Example 8 was repeated at two additional ratios of 5:1 and 50:1. The results are sumarised in tables 14 and 15.

A further data set deals with Trametes versicolor. The description is as above. Format: cell-based. Here is the method: as §4, §5, §6, §7, §8, §9, §10, §11
The subject of a further data set is Antroda xantha. The data set is described as above. In kind it is cell-based. Here is the method: as §4, §5, §6, §7, §8, §9, §10, §11
A further data set has as its system Pycnoporus coccineus. The data set is described as above. Format: cell-based. Here is the method:
as §4, §5, §6, §7, §8, §9, §10, §11

Data set [4] relates to Tyromyces palustris. The data set is described as above. In kind it is cell-based. Here is the method: as §4, §5, §6, §7, §8, §9, §10, §11
For data set [5] the following is noted: cited from earlier work.
[6] abbreviates: Ex 7, Table 5 prints no unit (ppm in Tables 1-4).
Where [7] appears, read: Ex 8, A=DIPB DDAC 3:1, B=triadimefon.
[8] abbreviates: Ex 9 repeat, A=DIPB DDAC 3:1, B=triadimefon.

Where two headings read alike, the source gives them in different places.

Consider `CCCC[N+](CCCC)(CCCC)CCCC.c1ccc2c(c1)CO[B-]1(OCc3ccccc3O1)O2`, for which the “inhibition of the fungi” value in the data set with P. tephropora and in the data set with G. abietinum was “complete inhibition” in each case.
Turning to `OB(O)O` [Boric acid], the Mass loss % in data set [1] (retention Boric acid 0.4% w) is reported as 32.91%; in [1] (retention Boric acid 0.8% w) it was 30.6%; in the data set with Coniophora puteana (retention Boric acid 0.4% w) it was 47.37%; with Coniophora puteana (retention Boric acid 0.8% w), 43.4%; in the data set on Tyromyces palustris [2] (retention Boric acid 0.4% w), 23.66%; in the data set on Tyromyces palustris [2] (retention Boric acid 0.8% w), 24.67%.
On to `CCCCCCCCCC[N+](C)(C)CCCCCCCCCC.[Cl-]` [DDAC, didecyldimethyl ammonium chloride], for which the MIC was 256 µg/mL in data set [3]; over 1020 µg/mL with Trametes versicolor (Trametes versicolor); 256 µg/mL in the data set on Antroda xantha; 2048 in the data set with Pycnoporus coccineus (setting [6]); 1020 µg/mL with Tyromyces palustris [4]. The “QB end point concentration, B alone” value is 256 in data set [3] (Ex 7, A=DIPB, B=DDAC); 2048 with Trametes versicolor (Ex 7, A=DIPB, B=DDAC); 256 in the data set with Antroda xantha (Ex 7, A=DIPB, B=DDAC); 2048 in the data set on Pycnoporus coccineus (Ex 7, A=DIPB, B=DDAC); 1024 with Tyromyces palustris [4] (Ex 7, A=DIPB, B=DDAC).
For `CCCCCCCCCCC1C[N+]23CC(C)O[B-]2(OC(C)C3)O1` (stereo not drawn) [DIPB, 3,7-dimethyl-10-decyl-2,8,9-trioxa-5-aza-1-boratricyclo-[3.3.3.0]-undecane], the Mass loss % turned out to be 32.95% in [1] (retention 0.1% w b.a.e.); 34.58% in [1] (retention 0.2% w b.a.e.); 10.09% in data set [1] (retention 0.4% w b.a.e); 0.29% in [1] (retention 0.8% w b.a.e); 56.25% in the data set on Coniophora puteana (retention 0.1% w b.a.e.); 47.62% in the data set on Coniophora puteana (retention 0.2% w b.a.e.). Also, the Mass loss % with Coniophora puteana (retention 0.4% w b.a.e) is recorded as 27.93%; in the data set with Coniophora puteana (retention 0.8% w b.a.e), 4.64%; in the data set on Tyromyces palustris [2] (retention 0.1% w b.a.e.), 22.55%; with Tyromyces palustris [2] (retention 0.2% w b.a.e.), 26.55%; in the data set on Tyromyces palustris [2] (retention 0.4% w b.a.e), 21.33%; with Tyromyces palustris [2] (retention 0.8% w b.a.e) it was 0.86%. In addition, the “rate of boron leaching” value in [5] (analysis of the lap joints each year) is reported as “significantly lower than boric acid”. The “efficacy compared to boric acid” value in [5] (weather exposed lap joints) is on record as “superior efficacy”. Further, the MIC in [3] (Ex 7) amounted to 2048 ppm; in the data set on Trametes versicolor (Ex 7) it was 256 ppm; with Antroda xantha (Ex 7), 256 ppm; with Pycnoporus coccineus (setting [6]), 2048; in the data set with Tyromyces palustris [4] (Ex 7), 1024 ppm. The “QA end point concentration, A alone” value in [3] (Ex 7, A=DIPB, B=DDAC) amounted to 2048; in the data set on Trametes versicolor (Ex 7, A=DIPB, B=DDAC), 2048; in the data set on Antroda xantha (Ex 7, A=DIPB, B=DDAC), 256; in the data set with Pycnoporus coccineus (Ex 7, A=DIPB, B=DDAC), 256; with Tyromyces palustris [4] (Ex 7, A=DIPB, B=DDAC), 1024.
With `CC(C)(C)C(=O)C(Oc1ccc(Cl)cc1)n1cncn1` (stereo not drawn) [Triadimefon], the “QB end point concentration, B alone” value in [3] (setting [7]) is on record as 4; in [3] (setting [8]), 8; in the data set on Trametes versicolor (setting [7]), 4; in the data set on Trametes versicolor (setting [8]) it was 4; with Antroda xantha (setting [7]) it was 4; in the data set on Antroda xantha (setting [8]) it was 4. In addition, the “QB end point concentration, B alone” value with Pycnoporus coccineus (setting [7]) turned out to be 128; in the data set on Pycnoporus coccineus (setting [8]), 0.5; with Tyromyces palustris [4] (setting [7]) it was 32; in the data set on Tyromyces palustris [4] (setting [8]), 16. Further, the MIC in [3] (Ex 8, read-out: MIC) turned out to be 4 µg/mL; in the data set with Trametes versicolor (Trametes versicolor, Ex 8, read-out: MIC), 128 µg/mL; with Antroda xantha (Ex 8, read-out: MIC) it was 4 µg/mL; in the data set with Pycnoporus coccineus (Trametes coccinea, Ex 8, read-out: MIC), 4 µg/mL; with Tyromyces palustris [4] (Ex 8, read-out: MIC), 32 µg/mL.
Turning to “alkyldimethyl benzyl ammonium chloride [Benzalkonium Chloride 50%]”, the Mass loss % in [1] (retention ADBAC 0.16% w) worked out at 30.66%; in [1] (retention ADBAC 0.33% w), 29.44%; in data set [1] (retention ADBAC 0.66% w), 27.92%; in data set [1] (retention ADBAC 1.33% w), 4.27%; in the data set on Coniophora puteana (retention ADBAC 0.16% w), 60.59%; with Coniophora puteana (retention ADBAC 0.33% w), 48.9%. In addition, the Mass loss % came out at 39.16% with Coniophora puteana (retention ADBAC 0.66% w); 17.72% in the data set on Coniophora puteana (retention ADBAC 1.33% w); 21.68% with Tyromyces palustris [2] (retention ADBAC 0.16% w); 25.03% in the data set on Tyromyces palustris [2] (retention ADBAC 0.33% w); 23.72% with Tyromyces palustris [2] (retention ADBAC 0.66% w); 12.61% with Tyromyces palustris [2] (retention ADBAC 1.33% w).
